Assay results from patent publication US20260258084A1, “New Peptides as Selective IL-23 Receptor Antagonists” (Sanofi, priority 2022, published 2026).
Starred links: 1 amine or outer side, 2 acyl side, 3 side chain; linkers in the order of their positions; H or OH if unused. Positions of bridges follow the written chain, without caps; N, C: chain ends. Non-standard residues stand in square brackets, D forms with d. Residues, ends and D or L forms follow the SMILES beside them. *: point of attachment. X5 = CN(C(=O)CCC(=O)[*:3])[C@@H](CS[*:2])C(=O)[*:1]; Trp(7-Me) = Cc1cccc2c(C[C@H](N)C(=O)O)c[nH]c12; X1 = O=C(CCCCN[*:3])N[C@@H](CS[*:2])C(=O)[*:1]; 2Nal = N[C@@H](Cc1ccc2ccccc2c1)C(=O)O; 3Pal = N[C@@H](Cc1cccnc1)C(=O)O; Lys(Me) = CNCCCC[C@H](N)C(=O)O; αMeL = CC(C)C[C@](C)(N)C(=O)O; Me2NCH2CH2 = CN(C)CC*; Aib = CC(C)(N)C(=O)O; Sar = CNCC(=O)O

What was measured:
[1] = target: T1, human interleukin-23 receptor (recombinant human IL-23R-Fc chimera) (Homo sapiens, UniProt Q5VWK5); assay: Human ELISA IL23/IL23R (assay for specific human IL23R antagonists); type: binding; details: Table 10; read-out: Human ELISA IL23/IL23R IC50
T1 construct: Fc (IgG Fc fusion)
Outline: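 Competition format: peptide dilutions compete for IL23R-Fc chimera (0.1 μg/ml final, 60 min, room temperature) binding to immobilized human IL23 coated at […] overnight at 4 °C. Read-out is fluorogenic HRP signal from goat anti-hu-IgG1 detecting captured receptor.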

Pepsin = tested on: T2, Pepsin; assay: Protease stability in simulated gastric fluid (Pepsin-SGF, FaSSGF); type: in vitro ADME; details: simulated gastric fluid with pepsin (Pepsin-SGF), 60 min, 1 μM peptide, 37° C., read-out: FaSSGF 60 (min), remaining percent of peptide
T2 construct: purchased Merck Millipore
Experimental: (§1) Studies were carried out in simulated intestinal fluid (SIF) and simulated gastric fluid (SGF) to evaluate gastric stability of the peptide compounds disclosed herein.
For clarification the term “Pepsin-SGF” refers to a solution of simulated gastric fluid containing pepsin whereas “SGF media” refers to a solution of simulated gastric fluid without pepsin. Pepsin-SGF was prepared by dissolving 320 mg Pepsin (Merck Millipore) in 100 mL SGF media concentrate (ProSense).
(§2) Peptides were first dissolved at 1 mM stock concentration in 0.01 HCl (+/−10% of DMSO) and were than diluted further with water to a stock concentration of 20 μM. Final peptide concentration in the incubation was 1 μM.
(§3) To 76 μL of the Pepsin-SGF buffer, 4 μL of the 20 μM peptide stock solution was added and incubated at 37° C. At each timepoint (0, 60, 120 and 240 minutes) the reaction was quenched with addition of 80 μL Ethanol (0.1% HCOOH). The samples were centrifuged for 20 minutes and an aliquot of the supernatant 100 μL were transferred to a LoBind-MTP plate and analyzed by LCMS/MS. The peak area response was calculated at each time point for each test compound. As internal reference, the peak area response of the same test compound at TO was calculated. The percent remaining at each timepoint was calculated based on the peak area response ratio of the test compound at TO. Time 0 was set to 100%, and all later timepoints were calculated relative to time 0.

[2] = tested on: IL-23 induced STAT3 signaling in HEK-Blue™ IL-23 cells; assay: IL-23 induced STAT3 signaling in HEK-Blue IL-23 cells (SEAP reporter); type: cell-based; details: human IL23 0.25 ng/ml, read-out: pSTAT3
Outline: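 Secreted SEAP, read at OD 620-655 nm after 45 min QUANTI-Blue development, reports STAT3 activation. Beforehand, cells were exposed to peptide dilutions for 60 min at 37 °C and then to 0.25 ng/ml final human IL-23 overnight, at 10,000 cells/well.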

Pancreatin = assay: Protease stability in simulated intestinal fluid (Pancreatin-SIF, FaSSIF); type: in vitro ADME; details: 1 μM peptide, 37° C.; for remaining at 1 h, 1 µM: 60 min, read-out: FaSSIF 60 (min), remaining percent of peptide; for remaining at 2 h, 1 µM: 120 min, read-out: FaSSIF 120 (min), remaining percent of peptide; for remaining at 4 h, 1 µM: 240 min, read-out: FaSSIF 240 (min), remaining percent of peptide
Experimental: as §1
Similarly, the term “Pancreatin-SIF” refers to a solution of simulated intestinal fluid containing pancreatin whereas “SIF-media” refers to a solution of simulated intestinal fluid without pancreatin.
Pancreatin-SIF was prepared by dissolving 1 mg Pancreatin (MP Biomedicals) in 10 mL SIF media concentrate (ProSense).
as §2
as §3, with “µM” for “μM”

Work on `CC(=O)N[C@H]1CCCCNC(=O)[C@@H]2CSSC[C@H](NC(=O)[C@H](CCC(N)=O)NC(=O)[C@H](Cc3c[nH]c4ccccc34)NC1=O)C(=O)N[C@@H](Cc1ccc(OCCN(C)C)cc1)C(=O)N[C@@H](Cc1ccc3ccccc3c1)C(=O)NC(C)(C)C(=O)N[C@H](C(=O)N[C@@H](CC(N)=O)C(=O)NCC(N)=O)CCC(=O)NCCCCC(=O)N2` [compound 29] (Ac-KWQCY(Me2NCH2CH2)[2Nal][Aib]ENG-NH2; linker 1-4-8 via X1) yielded an IC50 [1] of 0.45 nM, a remaining at 1 h, 1 µM (Pepsin) of 70% and an IC50 [2] of 8.16 nM. The remaining at 1 h, 1 µM (Pancreatin) was 73%, the remaining at 2 h, 1 µM (Pancreatin) was 58% and the remaining at 4 h, 1 µM (Pancreatin) was 47%.
For `C[C@@H](O)[C@@H]1NC(=O)[C@H](CC(N)=O)NC(=O)[C@@H]2CSSC[C@H](NC(=O)[C@H](CCC(N)=O)NC(=O)[C@H](Cc3c[nH]c4ccccc34)NC1=O)C(=O)N[C@@H](Cc1ccc(OCCN(C)C)cc1)C(=O)N[C@@H](Cc1ccc3ccccc3c1)C(=O)NC(C)(C)C(=O)N[C@H](C(=O)N[C@@H](CC(N)=O)C(=O)N[C@@H](CC(N)=O)C(N)=O)CCCCN(C)C(=O)CCC(=O)N2` [compound 25], the IC50 [1] was 0.59 nM, the remaining at 1 h, 1 µM (Pepsin) was 74% and the IC50 [2] was 39.2 nM. The remaining at 1 h, 1 µM (Pancreatin) was 71%, the remaining at 2 h, 1 µM (Pancreatin) was 52% and the remaining at 4 h, 1 µM (Pancreatin) was 45%.
`CC(=O)N[C@H]1CCCCNC(=O)[C@@H]2CSSC[C@H](NC(=O)[C@H](CC(C)C)NC(=O)[C@H](Cc3c[nH]c4c(C)cccc34)NC1=O)C(=O)N[C@@H](Cc1ccc(OCCN(C)C)cc1)C(=O)N[C@@H](Cc1ccc3ccccc3c1)C(=O)N[C@@](C)(CC(C)C)C(=O)N[C@H](C(=O)N[C@@H](CC(N)=O)C(=O)N[C@@H](Cc1cccnc1)C(=O)N(C)CC(N)=O)CCCCN(C)C(=O)CCC(=O)N2C` [compound 69] (Ac-K[Trp(7-Me)]LCY(Me2NCH2CH2)[2Nal][αMeL][Lys(Me)]N[3Pal][Sar]-NH2; linker 1-4-8 via X5) was tested, and the IC50 [1] was 2.17 nM, the remaining at 1 h, 1 µM (Pepsin) was 79% and the IC50 [2] was 3.07 nM. The remaining at 1 h, 1 µM (Pancreatin) was 97%, the remaining at 2 h, 1 µM (Pancreatin) was 89% and the remaining at 4 h, 1 µM (Pancreatin) was 83%.
